Source: ChEMBL document CHEMBL1131691, “Design and synthesis of simplified sordaricin derivatives as inhibitors of fungal protein synthesis” (Bioorg Med Chem Lett, 1999)

Columns and labels:
[1] = test system: Candida albicans; test: Inhibitory concentration against Candida albicans 2005E protein synthesis; assay type: functional, organism-based
[2] = test system: Candida albicans; test: Minimum inhibitory concentration Candida albicans 2005E cell growth; assay type: functional

What does the source list for `CC(C)C1=CC2C[C@]3(C=O)C4CCC(C)C4C[C@]2(CO)[C@]13C(=O)O` (some centres not stated) [SORDARICIN]?
IC50 [1]: 500 nM; MIC [2]: > 376 µM
